Reference: patent publication US6696437B1, “Heterocyclically substituted benzimidazoles, the production and application thereof” (Abbott GmbH & Co. KG, priority 1999, dated 2004)

Columns and labels:
[1] = S. Cuzzocrea et al., Br. J. Pharmacol. 1997; cited from earlier work
[2] = Determination of the solubility in water; type: physicochemical; settings: pH 5-6 adjusted with sodium acetate solution
Procedure: Determination of the Solubility in Water
A compound to be measured is dissolved directly in a fixed volume of water, and the resulting solution is adjusted to pH 5-6 with a sodium acetate solution so that the active ingredient concentration to be tested is reached. If the measured substance is not in the form of a water-soluble salt, it was dissolved in the minimum amount of dimethyl sulfoxide and then diluted with water (final dimethyl sulfoxide concentration≦1%), after which the pH was again adjusted.

[3] = system: poly(ADP-ribose) polymerase or PARP (EC 2.4.2.30); experiment: Inhibition of the enzyme poly(ADP-ribose) polymerase (ELISA / HTRF assay); type: biochemical, human or bovine
Procedure: The inhibitory effect of the substituted benzimidazoles I and II can be determined using an enzyme assay disclosed in the literature, with a Ki being determined as gauge of the effect. The benzimidazoles I and II were measured in this way for an inhibitory effect on the enzyme poly(ADP-ribose) polymerase or PARP (EC 2.4.2.30).
Inhibition of the Enzyme poly(ADP-ribose) Polymerase or PARP (EC 2.4.2.30)
A 96-well microtiter plate (FALCON Micro-Test IIIä Flexible Assay Plate, #3912) was coated with histones (SIGMA, H-7755). Histones were for this purpose dissolved in carbonate buffer (0.05 M […]; pH 9.4) in a concentration of 50 μg/ml. The individual wells of the microtiter plate were each incubated with 150 μl of this histone solution at room temperature for at least 2 hours or at 4° C. overnight. The wells are then blocked by adding 150 μl of a 1% strength BSA solution (SIGMA, A-7888) in carbonate buffer at room temperature for 2 hours. This is followed by three washing steps with washing buffer (0.05% […] in 1×PBS; PBS (phosphate buffered saline; Gibco, Order No. 10010): 0.21 g/l KH2PO4, 9 g/l NaCl, 0.726 g/l Na2HPO4.7H2O, pH 7.4). Washing steps were all carried out in a microtiter plate washer (“Columbus” microtiter plate washer, SLT-Labinstruments, Austria).
Required for the enzyme reaction were an enzyme reaction solution and a substrate solution, in each case as a premix. The absolute amount of these solutions depended on the intended number of assay wells.
Composition of the enzyme reaction solution per well:
4 μl of PARP reaction buffer (1 M tris-HCl pH 8.0, 100 mM MgCl2, 10 mM DTT)
20 ng of PARP (human or bovine)
4 μl of activated DNA (1 mg/ml; SIGMA, D-4522)
Composition of the substrate solution per well:
5 μl of PARP reaction buffer (10×)
0.8 μl of NAD solution (10 mM, SIGMA N-1511)
Inhibitors were dissolved in 1× PARP reaction buffer. DMSO, which was occasionally used to dissolve inhibitors in higher concentrations, was no problem up to a final concentration of 2%. For the enzyme reaction, 40μl of the enzyme reaction solution were introduced into each well and incubated with 10 μl of inhibitor solution for 10 minutes. The enzyme reaction was then started by adding 50 μl of substrate solution per well. The reaction was carried out at room temperature for 30 minutes and then stopped by washing three times with washing buffer.
The primary antibodies employed were specific anti-poly(ADP-ribose) antibodies in a dilution of 1:5000. Dilution took place in antibody buffer (1% BSA in PBS; 0.05% Tween20). Incubation time for the primary antibody was one hour at room temperature. […] This was followed by immediate measurement in an ELISA plate reader (EAR340AT “Easy Reader”, SLT-Labinstruments, Austria) (450 nm versus 620 nm).
Various concentrations were used to construct a dose-effect plot to determine the Ki of an inhibitor. […] Arithmetic means are determined using Microsoft© Excel. The IC50 is determined using the Microcal© Origin Software (Vers. 5.0) (“Sigmoidal Fit”). Conversion of the IC50 values calculated in this way into Ki values took place by using “calibration inhibitors”. The “calibration inhibitors” were also measured in each analysis. […]

[4] = molecular target: PARP II (Homo sapiens, UniProt Q9UGN5); experiment: Inhibition of the enzyme PARP II; type: biochemical; settings: PARP versus PARP II
Sequence of PARP II (Q9UGN5 whole entry): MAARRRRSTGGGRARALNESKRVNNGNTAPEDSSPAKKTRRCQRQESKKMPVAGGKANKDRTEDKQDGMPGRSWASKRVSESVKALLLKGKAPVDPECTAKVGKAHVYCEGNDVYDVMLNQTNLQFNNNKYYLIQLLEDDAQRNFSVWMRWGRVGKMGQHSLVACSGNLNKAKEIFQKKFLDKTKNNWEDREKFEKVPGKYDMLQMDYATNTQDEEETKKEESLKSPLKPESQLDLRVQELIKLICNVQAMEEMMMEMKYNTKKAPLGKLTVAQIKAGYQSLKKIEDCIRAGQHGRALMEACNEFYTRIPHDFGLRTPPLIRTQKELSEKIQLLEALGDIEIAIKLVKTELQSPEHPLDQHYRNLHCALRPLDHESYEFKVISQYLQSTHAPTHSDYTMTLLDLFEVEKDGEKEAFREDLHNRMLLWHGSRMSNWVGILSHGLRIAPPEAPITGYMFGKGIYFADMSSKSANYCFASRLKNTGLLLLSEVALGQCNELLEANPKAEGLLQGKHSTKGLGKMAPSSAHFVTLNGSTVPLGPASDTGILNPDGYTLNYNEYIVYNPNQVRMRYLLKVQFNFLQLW

SMILES	ranking as PARP inhibitor [3]	further results
NC(=O)c1cccc(N)c1 [3-aminobenzamide]	–	effect in a model of circulatory failure [1]: protective effects
NC(=O)c1cccc2[nH]c(-c3ccncc3)nc12 [Example 1, 2-Pyridin-4-ylbenzimidazole-4-carboxamide]	–	solubility in water [2]: > 0.5%
CCN(CC)CCN(C)c1ccc(-c2nc3c(C(N)=O)cccc3[nH]2)cn1.Cl.Cl [Example 15, 2-(6-((2-(N,N-Diethylamino)eth-1-yl)methylamino)pyridin-3-yl)benzimidazole-4-carboxamide×2 HCl]	best PARP inhibitors	–
CCCN1CCN(c2ccc(-c3nc4cccc(C(N)=O)c4[nH]3)cn2)CC1 [Example 16, 2-(6-(4-Propylpiperazin-1-yl)pyridin-3-yl)benzimidazole-4-carboxamide]	best PARP inhibitors	–
CCN(CC)CCN(C)c1cc(-c2nc3c(C(N)=O)cccc3[nH]2)ccn1.CCN(CC)CCN(C)c1cc(-c2nc3c(C(N)=O)cccc3[nH]2)ccn1.O=C(O)/C=C/C(=O)O [Example 25, 2-(2-((2-(N,N-Diethylamino)eth-1-yl)methylamino)pyridin-4-yl)benzimidazole-4-carboxamide×½ Fumaric Acid]	best PARP inhibitors	–
CC(C)(C)N1CCN(c2ccc(-c3nc4cccc(C(N)=O)c4[nH]3)cn2)CC1 [Example 36, 2-(2-(4-tert-Butylpiperazin-1-yl)pyridin-5-yl)benzimidazole-4-carboxamide]	best PARP inhibitors	–
CCCCN1CCN(c2ccc(-c3nc4cccc(C(N)=O)c4[nH]3)cn2)CC1.Cl [Example 37, 2-(2-(4-n-Butylpiperazin-1-yl)pyridin-5-yl)benzimidazole-4-carboxamide×HCl]	best PARP inhibitors	–
NC(=O)c1cccc2nc(-c3ccccc3)[nH]c12 [NU 1070, 2-phenylbenzimidazole-4-carboxamide]	–	Ki values for PARP compared with PARP II (selectivity) [4]: same order of magnitude
COc1ccc(-c2nc3cccc(C(N)=O)c3[nH]2)cc1 [NU 1076, reference compound]	–	solubility in water [2]: < 0.01%
